What was measured:
[1] = molecular target: T1, IDO (SKOV-3 cells) (Homo sapiens, UniProt P14902); assay: IDO cell-based assay (SKOV-3, IFNγ-induced), kynurenine production; details: SKOV-3 ovary adenocarcinoma cells, IFNγ 500 ng/ml, 500 μM L-Trp, 48 h, kynurenine by absorbance at 490 nm
T1 construct: This assay utilised cancer cells which expressed either TDO or IDO; host or cells: SKOV-3 ovary adenocarcinoma cells, IFNγ-induced
How it was run: (§1)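 SKOV-3 cells (IDO, induced with 500 ng/ml IFNγ) or A172 glioblastoma cells (TDO) were incubated with compound and 500 μM L-Trp for 48 h at 37 °C in phenol-red-free RPMI with dialysed serum. Supernatant kynurenine was measured with 1% Ehrlich's reagent as absorbance at 490 nm.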

[2] = molecular target: T2, TDO (A172 cells) (Homo sapiens, UniProt P48775); assay: TDO cell-based assay (A172), kynurenine production; details: A172 human glioblastoma cells, 500 μM L-Trp, 48 h, kynurenine by absorbance at 490 nm
T2 construct: This assay utilised cancer cells which expressed either TDO or IDO; host or cells: A172 human glioblastoma cells
How it was run: as §1

T1 sequence (P14902 whole entry): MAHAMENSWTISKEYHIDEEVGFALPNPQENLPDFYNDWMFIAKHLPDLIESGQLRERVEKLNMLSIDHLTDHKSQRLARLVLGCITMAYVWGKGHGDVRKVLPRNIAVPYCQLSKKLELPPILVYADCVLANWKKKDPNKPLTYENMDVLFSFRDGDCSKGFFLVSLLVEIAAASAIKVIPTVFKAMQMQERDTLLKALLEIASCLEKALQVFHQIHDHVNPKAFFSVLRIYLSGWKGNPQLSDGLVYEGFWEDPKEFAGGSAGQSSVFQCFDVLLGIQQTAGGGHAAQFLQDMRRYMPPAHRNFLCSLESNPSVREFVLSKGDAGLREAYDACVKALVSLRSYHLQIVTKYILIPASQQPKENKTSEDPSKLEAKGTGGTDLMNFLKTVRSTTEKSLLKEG
T2 sequence (P48775 whole entry): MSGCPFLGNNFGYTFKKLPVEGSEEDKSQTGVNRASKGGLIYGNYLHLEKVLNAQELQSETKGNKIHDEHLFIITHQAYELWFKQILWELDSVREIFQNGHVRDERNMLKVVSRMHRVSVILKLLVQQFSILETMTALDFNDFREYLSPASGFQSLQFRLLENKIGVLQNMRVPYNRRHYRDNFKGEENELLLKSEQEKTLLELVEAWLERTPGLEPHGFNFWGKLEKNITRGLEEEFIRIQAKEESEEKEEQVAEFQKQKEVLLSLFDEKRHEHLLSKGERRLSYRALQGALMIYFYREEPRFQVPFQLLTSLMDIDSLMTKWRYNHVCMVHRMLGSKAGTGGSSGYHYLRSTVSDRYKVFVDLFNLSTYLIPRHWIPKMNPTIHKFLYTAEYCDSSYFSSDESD

SMILES	IDO cellular assay (SKOV3) pIC50 [1]	TDO cellular assay (A172) pIC50 [2]
CS(=O)(=O)Nc1ccc2cc(C(=O)NC3(c4ccccc4)CC3)[nH]c2c1 [Compound 190]	+ (+ = pIC50 4.50-<5.00)	− (− = pIC50 <4.50)
Cn1cc(C2(NC(=O)c3cc4c(F)c(Cl)ccc4[nH]3)CC2)cn1 [Compound 191]	+++ (+++ = pIC50 ≥5.50)	− (− = pIC50 <4.50)
Cn1cc(C2(NC(=O)c3cc4ccc(O)cc4[nH]3)CC2)cn1 [Compound 196]	+ (+ = pIC50 4.50-<5.00)	− (− = pIC50 <4.50)
COCCn1cc(C(C)NC(=O)c2cc3cc(C#N)ccc3[nH]2)cn1 (centres unmarked) [Compound 197]	+ (+ = pIC50 4.50-<5.00)	− (− = pIC50 <4.50)
Cc1c(C2(NC(=O)c3cc4cc(Cl)ccc4[nH]3)CC2)cnn1C [Compound 198]	+++ (+++ = pIC50 ≥5.50)	− (− = pIC50 <4.50)
Cn1cc(C2(NC(=O)c3cc4cc(Cl)cc(F)c4[nH]3)CC2)cn1 [Compound 205]	+++ (+++ = pIC50 ≥5.50)	− (− = pIC50 <4.50)
Cn1cc(C2(NC(=O)c3cc4ccc(C(F)F)cc4[nH]3)CC2)cn1 [Compound 206]	+ (+ = pIC50 4.50-<5.00)	− (− = pIC50 <4.50)
Cn1cc(C2(NC(=O)c3cc4cc(O)ccc4[nH]3)CC2)cn1 [Compound 211]	+ (+ = pIC50 4.50-<5.00)	− (− = pIC50 <4.50)
Cn1cc(C2(NC(=O)c3cc4cc(Cl)ccc4[nH]3)COC2)cn1 [Compound 213]	+++ (+++ = pIC50 ≥5.50)	− (− = pIC50 <4.50)
CCn1cc(C2(NC(=O)c3cc4cc(Cl)ccc4[nH]3)CC2)cn1 [Compound 214]	+++ (+++ = pIC50 ≥5.50)	− (− = pIC50 <4.50)
Cn1cc(C2(NC(=O)c3cc4cc(Cl)ccc4[nH]3)CCC2)cn1 [Compound 215]	+++ (+++ = pIC50 ≥5.50)	− (− = pIC50 <4.50)
Cc1nc(C(C)NC(=O)c2cc3cc(C#N)ccc3[nH]2)no1 (centres unmarked) [Compound 216]	+ (+ = pIC50 4.50-<5.00)	− (− = pIC50 <4.50)
Cc1cc(C2(NC(=O)c3cc4cc(Cl)ccc4[nH]3)CC2)no1 [Compound 217]	+++ (+++ = pIC50 ≥5.50)	− (− = pIC50 <4.50)
Cc1cc(C2(NC(=O)c3cc4cc(C#N)ccc4[nH]3)CC2)no1 [Compound 219]	+++ (+++ = pIC50 ≥5.50)	− (− = pIC50 <4.50)
Cc1noc(C(C)NC(=O)c2cc3cc(C#N)ccc3[nH]2)n1 (centres unmarked) [Compound 221]	+ (+ = pIC50 4.50-<5.00)	− (− = pIC50 <4.50)
Cc1nc(C(C)NC(=O)c2cc3cc(C#N)ccc3[nH]2)co1 (centres unmarked) [Compound 222]	++ (++ = pIC50 5.00-<5.50)	− (− = pIC50 <4.50)
O=C(NC1(c2ccncc2)CC1)c1cc2cc(Cl)ccc2[nH]1 [Compound 223]	+++ (+++ = pIC50 ≥5.50)	− (− = pIC50 <4.50)
Cn1ccc(C2(NC(=O)c3cc4cc(Cl)ccc4[nH]3)CC2)n1 [Compound 224]	++ (++ = pIC50 5.00-<5.50)	++ (++ = pIC50 5.00-<5.50)
Cc1nc(C2(NC(=O)c3cc4cc(Cl)ccc4[nH]3)CC2)co1 [Compound 225]	+++ (+++ = pIC50 ≥5.50)	− (− = pIC50 <4.50)
Cc1nc(C2(NC(=O)c3cc4cc(C#N)ccc4[nH]3)CC2)co1 [Compound 226]	+++ (+++ = pIC50 ≥5.50)	− (− = pIC50 <4.50)
Cc1ncc(C(C)NC(=O)c2cc3cc(C#N)ccc3[nH]2)o1 (centres unmarked) [Compound 229]	+++ (+++ = pIC50 ≥5.50)	+++ (+++ = pIC50 ≥5.50)

Continued, values first:

IDO cellular assay (SKOV3) pIC50 [1]	TDO cellular assay (A172) pIC50 [2]	SMILES
+ (+ = pIC50 4.50-<5.00)	− (− = pIC50 <4.50)	C[C@@H](NC(=O)c1cc2cc(O)ccc2[nH]1)c1ccccc1 [Compound 181]
+++ (+++ = pIC50 ≥5.50)	− (− = pIC50 <4.50)	COc1ccc2[nH]c(C(=O)NC3(c4ccccc4)CC3)cc2c1 [Compound 182]
+++ (+++ = pIC50 ≥5.50)	+ (+ = pIC50 4.50-<5.00)	C[C@@H](NC(=O)c1cc2c(F)c(Cl)ccc2[nH]1)c1ccccc1 [Compound 183]
++ (++ = pIC50 5.00-<5.50)	− (− = pIC50 <4.50)	Cc1nnc(C(C)NC(=O)c2cc3cc(Cl)ccc3[nH]2)o1 (centres unmarked) [Compound 184]
+ (+ = pIC50 4.50-<5.00)	+ (+ = pIC50 4.50-<5.00)	C[C@@H](NC(=O)c1cc2ccc(O)cc2[nH]1)c1ccccc1 [Compound 185]
+++ (+++ = pIC50 ≥5.50)	− (− = pIC50 <4.50)	COc1ccc2[nH]c(C(=O)NC(C)c3cnn(C)c3)cc2c1 (centres unmarked) [Compound 186]
+ (+ = pIC50 4.50-<5.00)	− (− = pIC50 <4.50)	O=C(NC1(c2ccccc2)CC1)c1cc2cc(O)ccc2[nH]1 [Compound 187]
+++ (+++ = pIC50 ≥5.50)	+ (+ = pIC50 4.50-<5.00)	O=C(NC1(c2ccccc2)CC1)c1cc2cc(Cl)cc(F)c2[nH]1 [Compound 188]
++ (++ = pIC50 5.00-<5.50)	− (− = pIC50 <4.50)	O=C(NC1(c2ccccc2)CC1)c1cc2ccc(C(F)F)cc2[nH]1 [Compound 189]
+ (+ = pIC50 4.50-<5.00)	− (− = pIC50 <4.50)	CC(NC(=O)c1cc2ccc(C(F)F)cc2[nH]1)c1cnn(C)c1 (centres unmarked) [Compound 192]
+++ (+++ = pIC50 ≥5.50)	− (− = pIC50 <4.50)	CC(NC(=O)c1cc2c(F)c(Cl)ccc2[nH]1)c1cnn(C)c1 (centres unmarked) [Compound 193]
+++ (+++ = pIC50 ≥5.50)	− (− = pIC50 <4.50)	O=C(NC1(c2ccccc2)CC1)c1cc2c(F)c(Cl)ccc2[nH]1 [Compound 194]
++ (++ = pIC50 5.00-<5.50)	− (− = pIC50 <4.50)	COCCn1cc(C(C)NC(=O)c2cc3cc(Cl)ccc3[nH]2)cn1 (centres unmarked) [Compound 195]
+++ (+++ = pIC50 ≥5.50)	− (− = pIC50 <4.50)	Cc1noc(C(C)NC(=O)c2cc3cc(Cl)ccc3[nH]2)n1 (centres unmarked) [Compound 199]
+++ (+++ = pIC50 ≥5.50)	− (− = pIC50 <4.50)	Cc1nc(C(C)NC(=O)c2cc3cc(Cl)ccc3[nH]2)co1 (centres unmarked) [Compound 200]
+ (+ = pIC50 4.50-<5.00)	− (− = pIC50 <4.50)	CC(NC(=O)c1cc2cc(Cl)ccc2[nH]1)c1ccn(C)n1 (centres unmarked) [Compound 201]
+++ (+++ = pIC50 ≥5.50)	− (− = pIC50 <4.50)	CC(NC(=O)c1cc2cc(Cl)cc(F)c2[nH]1)c1cnn(C)c1 (centres unmarked) [Compound 202]
++ (++ = pIC50 5.00-<5.50)	+ (+ = pIC50 4.50-<5.00)	CC(NC(=O)c1cc2cc(Cl)c(F)cc2[nH]1)c1cnn(C)c1 (centres unmarked) [Compound 203]
+++ (+++ = pIC50 ≥5.50)	− (− = pIC50 <4.50)	Cn1cc(C2(NC(=O)c3cc4cc(Cl)c(F)cc4[nH]3)CC2)cn1 [Compound 204]
+++ (+++ = pIC50 ≥5.50)	+ (+ = pIC50 4.50-<5.00)	COc1ccc(-n2cc(C(C)NC(=O)c3cc4cc(Cl)ccc4[nH]3)cn2)cc1OC (centres unmarked) [Compound 207]
+++ (+++ = pIC50 ≥5.50)	+ (+ = pIC50 4.50-<5.00)	C[C@@H](NC(=O)c1cc2cc(Cl)c(F)cc2[nH]1)c1ccccc1 [Compound 208]
+++ (+++ = pIC50 ≥5.50)	++ (++ = pIC50 5.00-<5.50)	O=C(NC1(c2ccccc2)CC1)c1cc2cc(Cl)c(F)cc2[nH]1 [Compound 209]
+++ (+++ = pIC50 ≥5.50)	+ (+ = pIC50 4.50-<5.00)	O=C(NC1(c2ccccc2)COC1)c1cc2cc(Cl)c(F)cc2[nH]1 [Compound 210]
++ (++ = pIC50 5.00-<5.50)	+ (+ = pIC50 4.50-<5.00)	Cc1nc(C(C)NC(=O)c2cc3cc(Cl)ccc3[nH]2)no1 (centres unmarked) [Compound 212]
+ (+ = pIC50 4.50-<5.00)	− (− = pIC50 <4.50)	O=C(NC1(c2ccccc2)COC1)c1cc2ccc(C(F)F)cc2[nH]1 [Compound 218]
+++ (+++ = pIC50 ≥5.50)	− (− = pIC50 <4.50)	O=C(NC1(c2ccccc2)COC1)c1cc2c(F)c(Cl)ccc2[nH]1 [Compound 220]
+++ (+++ = pIC50 ≥5.50)	++ (++ = pIC50 5.00-<5.50)	O=C(NC1(c2ccccc2)COC1)c1cc2cc(Cl)cc(F)c2[nH]1 [Compound 227]
++ (++ = pIC50 5.00-<5.50)	++ (++ = pIC50 5.00-<5.50)	Cc1ncc(C(C)NC(=O)c2cc3cc(Cl)ccc3[nH]2)o1 (centres unmarked) [Compound 228]
